According to patent publication US20030157208A1, “Cynomoriaceae extract and use in treating erectile dysfunction” (priority 2001, published 2003):
≈ marks a conversion by molar mass, not a printed value.

System: rat corpus cavernosum tissue
Test: Relaxation of norepinephrine-precontracted isolated rat corpus cavernosum strips (organ bath)
Format: cell-based, Sprague-Dawley (SD) rats
Experimental: The extracts of this invention may be tested for their activity for alleviating or preventing symptoms erectile dysfunction by techniques known in the art. The test is similar to the endothelium-dependent vasorelaxatin test reported by Fitzpatrick et al., 1995. In general, in accordance with this protocol, plant extracts are tested for endothelium-dependent relaxation (EDR) by measuring the relaxation or contraction imparted by diluted samples to an appropriate tissue sample precontacted by norepinephrine to arrive at an EDR value that is the percentage of relaxation imparted. […] Experiments were performed on male, eight to twelve week old, 278.86±6.85 g Sprague-Dawley (SD) rats. Rats were housed in an animal care facility at the College of Medicine, University of Saskatchewan. Rats were anaesthetized with sodium pentobarbital (50 mg/kg) by intraperitoneal injection. The whole penis of one rat (shown at 10 in FIG. 3A) was gently dissected out and put into a Petri dish containing ice-cold Krebs' solution. The portion of the penis used for the experiments is shown generally at 12 in FIG. 3A. The penis was cleaned and the connective tissues were removed. The section 12 was prepared for testing as a proximal section (10 mm in length) of the corpus cavernosum 18, which was cut longitudinally into two pieces and the size of each piece was about 1×1×10 mm. […] The pH of this bath solution 23 was adjusted to 7.2. The corpus cavemosum strips 19 were tied with silk threads 24 at each end with one end immobilized at 26 on the inner wall of the organ bath chamber 20, and the other hooked to a transducer 28 (FT 03, Grass Ins. Co., Quincy). […] Strips 19 were contracted with 10 μM norepinephrine. After the plateau phase of contraction had been reached, the cumulative concentration-response relationships of BuSY and BuSY608 were tested. […] As a control and comparison compound, sildenafil ([…]®) was also used to test the penile tissue response (tissues prepared as above). […]

CCCc1nn(C)c2c(=O)[nH]c(-c3cc(S(=O)(=O)N4CCN(C)CC4)ccc3OCC)nc12 [sildenafil]
EC50 (Rattus norvegicus, strips precontracted with 10 μM norepinephrine, cumulative concentration-response, n=6): 11.4 mg/L (≈ 24 µM)
maximal relaxation (induced by 200 μg/ml, norepinephrine-precontracted strips, n=6): 66.7±6.1%
concentration at which relaxation was initiated (norepinephrine-precontracted strips, cumulative concentration ladder): 0.6 µg/mL
